Laboratory results from US3969401A, “D-aminophenylacetic acid compounds and derivatives” (William H. Rorer, Inc., priority 1973, dated 1976).
Counter-ions that a name gives are not always drawn.

Legend:
carrageenan paw edema = assay: Carrageenan Paw Edema (CPE); format: in vivo, male rats
Procedure: Of the substances used to induce local irritation, carrageenan was selected since most known nonsteroidal anti-inflammatory agents inhibit this inflammation.
Ten male rats per dose group (120-150 g.) were given one-half of the test material orally. Thirty minutes later, the remainder of the dose was given and 0.2 ml. of a 1% carrageenan solution was injected subdermally into the plantar surface of the hind paw. Each paw is marked as a consistent anatomical site, then immersed in a mercury bath to that point. The mercury bath is connected to a pressure transducer and the volume of displacement is read directly on a recorder. Three hours after drug administration, the hind paw volume is measured again. The increased volume is an index of edema. Treated groups are compared to a placebo-treated group to calculate the percent inhibition of edema.
(§1) The test results are given in the following Table wherein the following legends were employed: PQW phenylquinone writhing RSA Randall-Selitto Analgesia CPE Carrageenan Paw Edema UVS Ultra-Violet Erythema FPG Filter Paper Granuloma AP Anti-Pyresis P.T. Pain Threshold No. P/T Number Positive/Total % ↑ Percentage Increase % ↓ Percentage Inhibition

ultra-violet erythema = assay: Ultra-violet Erythema in Guinea Pigs (UVE); format: in vivo, guinea pig
Excerpt: Erythema associated with inflammation was used in the assay. Restricted areas of a guinea pig were exposed to a controlled ultra-violet light and after two hours the exposed areas were graded for the extent of erythema.
as §1

polyarthritis (adjuvant) = assay: Polyarthritis in rats (adjuvant); format: in vivo
Procedure: Twelve rats per dose group were treated (b.i.d.) starting the day before injection of adjuvant. Paw volumes were measured for both hind paws on several days during and following drug treatment. Drug was given for a period of 15 days. The paw volume was compared to an untreated control group to determine volume increase. Drug action was calculated as the percent decrease in paw volume (inflammation) as compared to an adjuvant-treated control. Gross signs of inflammation were scored on a weekly basis and drug action calculated as a decrese in total score. Body weights were recorded at intervals.

Brewer's yeast fever = assay: Anti-Pyretic Assay (AP); format: in vivo, rats; conditions: positive = rectal temperature decreases by 1° C. or more
Procedure: Brewer's yeast was injected subcutaneously in rats and rectal temperatures were obtained at the end of five hours. Those rats (10 per group) having a significant fever were given test compounds and rectal temperatures were measured at hourly intervals for 2 to 3 hours. (A positive response occurs when rectal temperature decreases by 1° C. or more).
as §1

[1] = tested on: yeast-inflamed hind paw (pain threshold); assay: Randall-Selitto Analgesia Test (RSA); format: in vivo, rat
Procedure: In accordance with the Randall-Selitto test for measuring the pain threshold, the pressure needed on a metal plunger to give a "pain reponse" in a rat when the plunger is placed in the yeast-inflamed hind paw of a rat is measured. Following measurement of control pain threshold, yeast was injected into the paw and the test compound was given orally. The pain threshold was measured at hourly intervals and compared to a placebo-treated control group.
as §1

Acute Toxicity = conditions: mouse, in vivo; male mice, oral single dose, observed nine days
Procedure: Food and water were delivered ad lib. The drug to be tested was prepared as a water suspension using one drop of "Tween 80" per 10 ml. and administered orally as a single dose (10 ml./kg.). The control group received the vehicle only (10 ml./kg.). The lethal dose (LD50) which is the dose of drug required to kill 50 percent of the animals tested, was determined by the Litchfield and Wilcoxon method.

phenylquinone writhing = assay: Phenylquinone analgesia (phenylquinone writhing, PQW); format: in vivo, mice
Procedure: Mice were pre-treated orally with test compound and then given 1.25 mg./kg. of phenylquinone i.p to produce a series of "writhes" (severe intestinal contractions). The number of writhes was recorded. The percent decrease was calculated from the incidence of writhes in a placebo-treated control group.
as §1

filter paper granuloma = assay: Filter Paper Granuloma (FPG); format: in vivo, rat
Procedure: This assay was used to evaluate anti-inflammatory agents and to determine the lowest dose which produces significant inhibition of granuloma growth. This assay has the advantage of being semi-acute (4 to 7 days). The usual end point involves obtaining the wet weight as well as the dry weight of the granuloma.
Small discs of filter paper saturated with carrageenan were placed subcutaneously in each rat on the first day of the study. Test compound was administered orally on a b.i.d. basis on Day 1 to Day 4. On Day 5, a single dose was given in the morning and the animals were sacrificed in the afternoon. Both filter paper discs were removed and trimmed of extraneous tissue and then weighed. After drying in an oven over the weekend, the dry weight was obtained. Activity was determined by the difference in granuloma weight between a placebo-treated control group and the drug-treated groups.
as §1

gastrointestinal tract = assay: Gastrointestinal tolerance; format: in vivo; conditions: compared with the free acids

For O=C(O)C(S)c1ccc(C2CCCCC2)c(Cl)c1 (stereo not drawn) [Compound 528A, Diethylammonium salt of m-chloro-p-cyclohexyl-α-mercaptophenylacetic acid], the “CPE % inhibition of edema” value (carrageenan paw edema; 100 mg/kg P.O) was 52.0%, the “UVE No. P/T (Number Positive/Total)” value (ultra-violet erythema; 5 mg/kg P.O) was 5/8 and the “UVE No. P/T (Number Positive/Total)” value (ultra-violet erythema; 10 mg/kg P.O) was 5/8. The “UVE No. P/T (Number Positive/Total)” value (ultra-violet erythema; 25 mg/kg P.O) was 7/8, the ED50 (ultra-violet erythema; Cavia porcellus, po, P.O) was 10.5 mg/kg and the “Polyarthritis % av. inhibition, injected hind-paw” value (polyarthritis (adjuvant); 100 mg./kg./day P.O) was 52.8%. The “Polyarthritis % av. inhibition, noninjected hind-paw” value (polyarthritis (adjuvant); 100 mg./kg./day P.O) was 35.6% and the “Polyarthritis % av. inhibition, secondary lesions” value (polyarthritis (adjuvant); 100 mg./kg./day P.O) was 34.0%.
For O=C1NC(=O)C(c2ccc(C3CCCCC3)c(Cl)c2)S1 (centres unmarked) [Compound 529, 5-(m-Chloro-p-cyclohexylphenyl)-2,4-dioxothiazolidine], the “CPE % inhibition of edema” value (carrageenan paw edema; 50 mg/kg P.O) was 17.4%, the “CPE % inhibition of edema” value (carrageenan paw edema; 100 mg/kg P.O) was 30% and the “AP No. P/T (Number Positive/Total)” value (Brewer's yeast fever; 100 mg/kg P.O) was 1/8. For the same molecule, the “Polyarthritis % av. inhibition, injected hind-paw” value (polyarthritis (adjuvant); 100 mg./kg./day P.O) was 42.0%, the “Polyarthritis % av. inhibition, noninjected hind-paw” value (polyarthritis (adjuvant); 100 mg./kg./day P.O) was 17.3% and the “Polyarthritis % av. inhibition, secondary lesions” value (polyarthritis (adjuvant); 100 mg./kg./day P.O) was 21.0%.
With N=C1NC(=O)C(c2ccc(C3CCCCC3)c(Cl)c2)S1 (centres unmarked) [Compound 530, 5-(m-Chloro-p-cyclohexylphenyl)-2-imino-4-oxothiazolidine] the “RSA % increase of pain threshold (PT)” value ([1]; 100 mg/kg P.O) was 51.4%, the “Polyarthritis % av. inhibition, injected hind-paw” value (polyarthritis (adjuvant); 100 mg./kg./day P.O) was 38.1% and the “Polyarthritis % av. inhibition, noninjected hind-paw” value (polyarthritis (adjuvant); 100 mg./kg./day P.O) was 44.7%. The “Polyarthritis % av. inhibition, secondary lesions” value (polyarthritis (adjuvant); 100 mg./kg./day P.O) was 17.3%.
With O=C(O)C(SSC(C(=O)O)c1ccc(C2CCCCC2)c(Cl)c1)c1ccc(C2CCCCC2)c(Cl)c1 (stereo not drawn) [Compound 531A, Diethylammonium salt of α,α'-di-(m-chloro-p-cyclohexylphenyl)-α',α'-dithiodiacetic acid] the “CPE % inhibition of edema” value (carrageenan paw edema; 100 mg/kg P.O) was 19.9%, the “RSA % increase of pain threshold (PT)” value ([1]; 50 mg/kg P.O) was 32% and the “RSA % increase of pain threshold (PT)” value ([1]; 100 mg/kg P.O) was 28%. For the same molecule, the “RSA % increase of pain threshold (PT)” value ([1]; 200 mg/kg P.O) was 51%, the “AP No. P/T (Number Positive/Total)” value (Brewer's yeast fever; 50 mg/kg P.O) was 1/8 and the “AP No. P/T (Number Positive/Total)” value (Brewer's yeast fever; 100 mg/kg P.O) was 1/8. For the same molecule, the “AP No. P/T (Number Positive/Total)” value (Brewer's yeast fever; 200 mg/kg P.O) was 6/8, the “Polyarthritis % av. inhibition, injected hind-paw” value (polyarthritis (adjuvant); 100 mg./kg./day P.O) was 34.0% and the “Polyarthritis % av. inhibition, noninjected hind-paw” value (polyarthritis (adjuvant); 100 mg./kg./day P.O) was 44.7%. The “Polyarthritis % av. inhibition, secondary lesions” value (polyarthritis (adjuvant); 100 mg./kg./day P.O) was 30.3%, the “Polyarthritis % av. inhibition, injected hind-paw” value (polyarthritis (adjuvant); 200 mg./kg./day P.O) was 35.6% and the “Polyarthritis % av. inhibition, noninjected hind-paw” value (polyarthritis (adjuvant); 200 mg./kg./day P.O) was 43.8%. For the same molecule, the “Polyarthritis % av. inhibition, secondary lesions” value (polyarthritis (adjuvant); 200 mg./kg./day P.O) was 43.6% and the LD50 at 216 h (Acute Toxicity) was greater than 2000 mg/kg.
With O=C(O)C(Cl)c1ccc(C2CCCCC2)c(Cl)c1 (stereo not drawn) [Compound 539A, Sodium salt of α,m-dichloro-p-cyclohexylphenylacetic acid] the “PQW % inhibition (decrease in writhes)” value (phenylquinone writhing; 2 mg/kg P.O) was 13.1%, the “PQW % inhibition (decrease in writhes)” value (phenylquinone writhing; 5 mg/kg P.O) was 13.1% and the “PQW % inhibition (decrease in writhes)” value (phenylquinone writhing; 10 mg/kg P.O) was 54.6%. For the same molecule, the “PQW % inhibition (decrease in writhes)” value (phenylquinone writhing; 20 mg/kg P.O) was 84.5%, the “PQW % inhibition (decrease in writhes)” value (phenylquinone writhing; 30 mg/kg P.O) was 96.6% and the ED50 (phenylquinone writhing; Mus musculus, po, P.O) was 9.6 mg/kg. The “CPE % inhibition of edema” value (carrageenan paw edema; 1 mg/kg P.O) was 10%, the “CPE % inhibition of edema” value (carrageenan paw edema; 2 mg/kg P.O) was 30.3% and the “CPE % inhibition of edema” value (carrageenan paw edema; 3.125 mg/kg P.O) was 34.6%. The “CPE % inhibition of edema” value (carrageenan paw edema; 5 mg/kg P.O) was 29.5%, the “CPE % inhibition of edema” value (carrageenan paw edema; 6.25 mg/kg P.O) was 42.0% and the “CPE % inhibition of edema” value (carrageenan paw edema; 12.5 mg/kg P.O) was 47.2%. The “CPE % inhibition of edema” value (carrageenan paw edema; 25 mg/kg P.O) was 43.0%, the “CPE % inhibition of edema” value (carrageenan paw edema; 50 mg/kg P.O) was 52.0% and the “CPE % inhibition of edema” value (carrageenan paw edema; 100 mg/kg P.O) was 64.0%. The “RSA % increase of pain threshold (PT)” value ([1]; 25 mg/kg P.O) was 41.8%, the “RSA % increase of pain threshold (PT)” value ([1]; 50 mg/kg P.O) was 49.3% and the “RSA % increase of pain threshold (PT)” value ([1]; 100 mg/kg P.O) was 77.6%. The “AP No. P/T (Number Positive/Total)” value (Brewer's yeast fever; 6.25 mg/kg P.O) was 0/8, the “AP No. P/T (Number Positive/Total)” value (Brewer's yeast fever; 12.5 mg/kg P.O) was 3/8 and the “AP No. P/T (Number Positive/Total)” value (Brewer's yeast fever; 25 mg/kg P.O) was 2/8. The “AP No. P/T (Number Positive/Total)” value (Brewer's yeast fever; 50 mg/kg P.O) was 6/8, the “AP No. P/T (Number Positive/Total)” value (Brewer's yeast fever; 100 mg/kg P.O) was 8/8 and the “Polyarthritis % av. inhibition, injected hind-paw” value (polyarthritis (adjuvant); 10 mg./kg./day P.O) was 41.8%. For the same molecule, the “Polyarthritis % av. inhibition, noninjected hind-paw” value (polyarthritis (adjuvant); 10 mg./kg./day P.O) was 14.1%, the “Polyarthritis % av. inhibition, secondary lesions” value (polyarthritis (adjuvant); 10 mg./kg./day P.O) was 28.2% and the “Polyarthritis % av. inhibition, injected hind-paw” value (polyarthritis (adjuvant); 25 mg./kg./day P.O) was 50.2%. For the same molecule, the “Polyarthritis % av. inhibition, noninjected hind-paw” value (polyarthritis (adjuvant); 25 mg./kg./day P.O) was 12.1%, the “Polyarthritis % av. inhibition, secondary lesions” value (polyarthritis (adjuvant); 25 mg./kg./day P.O) was 44.0% and the “Polyarthritis % av. inhibition, injected hind-paw” value (polyarthritis (adjuvant); 50 mg./kg./day P.O) was 45%. For the same molecule, the “Polyarthritis % av. inhibition, noninjected hind-paw” value (polyarthritis (adjuvant); 50 mg./kg./day P.O) was 59.6%, the “Polyarthritis % av. inhibition, secondary lesions” value (polyarthritis (adjuvant); 50 mg./kg./day P.O) was 39.3% and the “Polyarthritis % av. inhibition, injected hind-paw” value (polyarthritis (adjuvant); 100 mg./kg./day P.O) was 59.1%. The “Polyarthritis % av. inhibition, noninjected hind-paw” value (polyarthritis (adjuvant); 100 mg./kg./day P.O) was 51.2%, the “Polyarthritis % av. inhibition, secondary lesions” value (polyarthritis (adjuvant); 100 mg./kg./day P.O) was 30.1% and the “EPG (Filter Paper Granuloma) % inhibition, dry weight” value (filter paper granuloma; 25 mg./kg./day P.O) was 41.1%. The “EPG (Filter Paper Granuloma) % inhibition, wet weight” value (filter paper granuloma; 25 mg./kg./day P.O) was 31.7%, the “EPG (Filter Paper Granuloma) % inhibition, dry weight” value (filter paper granuloma; 50 mg./kg./day P.O) was 38.8% and the “EPG (Filter Paper Granuloma) % inhibition, wet weight” value (filter paper granuloma; 50 mg./kg./day P.O) was 43.9%. The LD50 at 216 h (Acute Toxicity) was 430 mg/kg.
In the case of CCOC(=O)C(Cl)c1ccc(C2CCCCC2)c(Cl)c1 (stereo not drawn) [Compound 541, α,m-Dichloro-p-cyclohexylphenylacetic acid ethyl ester], the “CPE % inhibition of edema” value (carrageenan paw edema; 6.25 mg/kg P.O) is reported as 51.3%, the “CPE % inhibition of edema” value (carrageenan paw edema; 12.5 mg/kg P.O) is reported as 38.8% and the “CPE % inhibition of edema” value (carrageenan paw edema; 25 mg/kg P.O) is reported as 49.8%. The “CPE % inhibition of edema” value (carrageenan paw edema; 50 mg/kg P.O) was 52.2% and the gastrointestinal tolerability (gastrointestinal tract) was “better tolerated and not as irritating on the gastrointestinal tract as the free acids”.
